Where two headings read alike, the source gives them in different places.
Test system: 407 cancer cell lines
Test: Cell viability of cancer cell lines (IC50), CellTiter-Glo Viability Assay, 96 h
Assay type: cell-based
Details: for IC50: read-out: Absolute IC50
Protocol: Viability was determined by using the 50% inhibitory concentration (IC50) as determined with the CellTiter-Glo® Viability Assay (Promega).
Experiments were initiated by first thawing and equilibrating the CellTiter-Glo® Buffer to room temperature. The lyophilized CellTiter-Glo® Substrate was also equilibrated to room temperature. The lyophilized substrate was reconstituted with the CellTiter-Glo® buffer to form the CellTiter-Glo® Reagent.
Cells were harvested during the logarithmic growth period, counted, and the cell concentration adjusted to 4.44×10^4 cells/mL using culture medium.
Cells were allowed to grow overnight and the following day, the TO reading was obtained by adding 10 μL culture medium to each well of Plate A. The plate was allowed to equilibrate at room temperature for thirty minutes, after which 50 μL CellTiter-Glo® reagent was added to each well. The contents were mixed for 5 min on an orbital shaker to induce cell lysis. Plates were incubated for 20 minutes to stabilize the luminescent signal and the TO luminescence recorded.
Test plate B was incubated for 96 h in the humidified incubator at 37° C. with 5% CO2.
Following the incubation, the plate was equilibrated at room temperature for thirty minutes. CellTiter-Glo® (50 μL) was added to each well of the plate and contents mixed for five minutes on an orbital shaker to induce cell lysis. The luminescent signal was allowed to stabilize at room temperature for 20 minutes and the luminescence recorded.
IC50 (EC50) was calculated using a dose-response curve, fitted using a nonlinear regression model with a sigmoidal dose response. Survival rate was calculated using the formula:
The Surviving rate (%)=(LumTest article−LumMedium control)/(LumNon-treated−LumMedium control)×100%.
Absolute IC50 (EC50) was calculated according to the dose-response curve generated by the statistical software (GraphPad Prism 5.0).

**Q.** With Cc1nn(-c2nc(-c3ccc(C(F)(F)F)cc3)c(SC(C)C)s2)c(C(=O)O)c1-c1cccc(F)c1 [Compound A197, 4-(3-fluorophenyl)-1-(5-(isopropylthio)-4-(4-(trifluoromethyl)phenyl)thiazol-2-yl)-3-methyl-1H-pyrazole-5-carboxylic acid] as the compound, how does the “% inhibition at top conc.” value (22Rv1 cells, 96 h) read?
**A.** 68.15%

**Q.** What about the “% inhibition at top conc.” value (5637 cells, 96 h) of the same compound?
**A.** 68.06%

**Q.** And the IC50 (96 h, 5637 cells, 96 h)?
**A.** 490 nM

**Q.** What about the IC50 (96 h, A3/KAW cells, 96 h) of the same compound?
**A.** 290 nM

**Q.** And the IC50 (96 h, ASH-3 cells, 96 h)?
**A.** > 30000 nM

**Q.** What about the IC50 (96 h, C4-2, 96 h) of the same compound?
**A.** > 30000 nM

**Q.** What about the IC50 (96 h, CCK-81 cells, 96 h) of the same compound?
**A.** 320 nM

**Q.** And the IC50 (96 h, COV644 cells, 96 h)?
**A.** > 30000 nM

**Q.** What about the IC50 (96 h, H4 cells, 96 h) of the same compound?
**A.** 730 nM

**Q.** What about the IC50 (96 h, HCC 94 cells, 96 h) of the same compound?
**A.** 820 nM

**Q.** And the IC50 (96 h, HM-7, 96 h)?
**A.** > 30000 nM

**Q.** And the IC50 (96 h, IHH-4 cells, 96 h)?
**A.** 900 nM

**Q.** What about the IC50 (96 h, IM95m cells, 96 h) of the same compound?
**A.** 780 nM

**Q.** And the IC50 (96 h, JHH-5 cells, 96 h)?
**A.** > 30000 nM

**Q.** And the IC50 (96 h, M059K cells, 96 h)?
**A.** 1660 nM

**Q.** What about the IC50 (96 h, MC/CAR cells, 96 h) of the same compound?
**A.** 3280 nM

**Q.** What about the IC50 (96 h, NAMALWA cells, 96 h) of the same compound?
**A.** 510 nM

**Q.** What about the IC50 (96 h, OCUM-2D cells, 96 h) of the same compound?
**A.** 1150 nM

**Q.** What about the IC50 (96 h, OCUM-2M cells, 96 h) of the same compound?
**A.** 830 nM

**Q.** And the IC50 (96 h, RBE cells, 96 h)?
**A.** 840 nM

**Q.** What about the IC50 (96 h, SCH cells, 96 h) of the same compound?
**A.** > 30000 nM

**Q.** And the IC50 (96 h, SNU-719 cells, 96 h)?
**A.** > 30000 nM

**Q.** What about the IC50 (96 h, SNU-761 cells, 96 h) of the same compound?
**A.** 1110 nM

**Q.** And the IC50 (96 h, SNU-2535 cells, 96 h)?
**A.** 750 nM

**Q.** And the IC50 (96 h, SNU-C5 cells, 96 h)?
**A.** > 30000 nM

**Q.** What about the IC50 (96 h, SW 156 cells, 96 h) of the same compound?
**A.** 2390 nM

**Q.** And the IC50 (96 h, T.Tn cells, 96 h)?
**A.** 840 nM

**Q.** What about the IC50 (96 h, TJ905 cells, 96 h) of the same compound?
**A.** > 30000 nM

**Q.** What about the IC50 (96 h, YCC-1 cells, 96 h) of the same compound?
**A.** > 30000 nM

**Q.** What about the IC50 (96 h, YCC-2 cells, 96 h) of the same compound?
**A.** > 30000 nM

**Q.** And the IC50 (96 h, YCC-6 cells, 96 h)?
**A.** 540 nM

**Q.** What about the IC50 (96 h, YCC-10, 96 h) of the same compound?
**A.** > 30000 nM

**Q.** And the IC50 (A875, 96 h, A875 cells, 96 h)?
**A.** > 30000 nM

**Q.** And the “% inhibition at top conc.” value (A875 cells, 96 h)?
**A.** 10.68%

**Q.** And the “% inhibition at top conc.” value (A2058, 96 h)?
**A.** 29.09%

**Q.** What about the “% inhibition at top conc.” value (A2780 cells, 96 h) of the same compound?
**A.** 69.48%

**Q.** What about the IC50 (A2780cis, 96 h, A2780cis cells, 96 h) of the same compound?
**A.** 540 nM

**Q.** What about the “% inhibition at top conc.” value (A-204 cells, 96 h) of the same compound?
**A.** 37.77%

**Q.** What about the “% inhibition at top conc.” value (A-375, 96 h) of the same compound?
**A.** 52.11%

**Q.** What about the “% inhibition at top conc.” value (A-431, 96 h) of the same compound?
**A.** 66.83%

**Q.** What about the “% inhibition at top conc.” value (AGS cells, 96 h) of the same compound?
**A.** 28.18%

**Q.** And the “% inhibition at top conc.” value (AN3 CA, 96 h)?
**A.** 35.67%

**Q.** What about the “% inhibition at top conc.” value (AsPC-1 cells, 96 h) of the same compound?
**A.** 34.71%

**Q.** What about the “% inhibition at top conc.” value (C4-2, 96 h) of the same compound?
**A.** 45.07%

**Q.** What about the “% inhibition at top conc.” value (C666-1 cells, 96 h) of the same compound?
**A.** 36.20%

**Q.** And the IC50 (CADO-ES1, CADO-ES1)?
**A.** 210 nM

**Q.** And the “% inhibition at top conc.” value (CAMA-1, 96 h)?
**A.** 54.72%

**Q.** And the “% inhibition at top conc.” value (COLO 205, 96 h)?
**A.** 60.57%

**Q.** What about the “% inhibition at top conc.” value (COLO 320DM, 96 h) of the same compound?
**A.** 72.92%

**Q.** What about the “% inhibition at top conc.” value (COV644 cells, 96 h) of the same compound?
**A.** 31.57%

**Q.** And the “% inhibition at top conc.” value (Calu-3, 96 h)?
**A.** 65.15%

**Q.** What about the IC50 (CoC1, 96 h, CoC1/DDP cells, 96 h) of the same compound?
**A.** > 30000 nM

**Q.** And the IC50 (CoC1, 96 h, CoC1 cells, 96 h)?
**A.** 1320 nM

**Q.** What about the “% inhibition at top conc.” value (DMS 53 cells, 96 h) of the same compound?
**A.** 85.18%

**Q.** And the “% inhibition at top conc.” value (DOHH-2 cells, 96 h)?
**A.** 99.99%

**Q.** What about the “% inhibition at top conc.” value (DU 145, 96 h) of the same compound?
**A.** 66.37%

**Q.** What about the “% inhibition at top conc.” value (EBC-1, 96 h) of the same compound?
**A.** 42.21%

**Q.** What about the “% inhibition at top conc.” value (EFM-192A, 96 h) of the same compound?
**A.** 49.39%

**Q.** And the IC50 (EFM-192A, 96 h, EFM-192A, 96 h)?
**A.** 520 nM

**Q.** And the “% inhibition at top conc.” value (ES-2 cells, 96 h)?
**A.** 44.22%

**Q.** What about the “% inhibition at top conc.” value (FaDu, 96 h) of the same compound?
**A.** 62.82%

**Q.** What about the “% inhibition at top conc.” value (GTL-16 cells, 96 h) of the same compound?
**A.** 54.64%

Source: patent US20210278408A1, “METHODS OF TREATMENT OF CANCER WITH SUBSTITUTED PYRROLE AND PYRAZOLE COMPOUNDS AND DIAGNOSIS OF CANCERS SUSCEPTIBLE TO TREATMENT WITH SUBSTITUTED PYRROLE AND PYRAZOLE COMPOUNDS” (Bantam Pharmaceutical, LLC, priority 2018, published 2021)
